Reference: PMC6287826, “Regulation of histone deacetylase 3 by metal cations and 10-hydroxy-2E-decenoic acid: Possible epigenetic mechanisms of queen-worker bee differentiation” (PLoS ONE, 2018)

Target: T1, histone deacetylase 3 (HDAC3) (Homo sapiens, UniProt O15379)
T1 construct: full length human HDAC3 (NP_003874.2) with a C-terminal FLAG tag, in complex with human NCOR2 amino acids 395–489 with an N-terminal 6xHis tag; with NCOR2 (SMRT) amino acids 395–489
Test: Fluor de Lys fluorescent deacetylase assay, fractional activity vs [10-HDA]
Assay type: biochemical

T1 sequence (O15379 whole entry, the tested form may be a part): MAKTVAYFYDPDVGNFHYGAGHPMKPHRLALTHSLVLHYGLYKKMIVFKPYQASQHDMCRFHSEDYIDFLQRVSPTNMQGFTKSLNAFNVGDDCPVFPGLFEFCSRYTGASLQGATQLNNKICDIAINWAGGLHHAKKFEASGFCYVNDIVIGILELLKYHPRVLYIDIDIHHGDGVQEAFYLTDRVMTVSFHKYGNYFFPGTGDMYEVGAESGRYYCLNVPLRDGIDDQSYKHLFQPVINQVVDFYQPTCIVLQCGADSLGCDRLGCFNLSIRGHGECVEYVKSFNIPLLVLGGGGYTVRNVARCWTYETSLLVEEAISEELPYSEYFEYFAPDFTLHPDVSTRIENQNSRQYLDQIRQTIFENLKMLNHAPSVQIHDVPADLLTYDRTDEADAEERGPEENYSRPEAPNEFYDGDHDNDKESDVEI
T1 sequence (Q9Y618 395-489 partner): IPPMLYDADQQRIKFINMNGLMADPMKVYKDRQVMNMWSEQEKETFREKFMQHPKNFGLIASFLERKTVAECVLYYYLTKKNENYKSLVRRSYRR

Ki: 5.32 mM
SMILES: O=C(O)/C=C/CCCCCCCO [10-HDA, 10-hydroxy-2E-decenoic acid]
